Results from patent US20250073255A1, “USE OF FA-TYPE LIPID COMPOUNDS IN PREPARATION OF NUCLEIC ACID DELIVERY REAGENT AND RELATED PRODUCT” (BEIJING BAISHIKANG PHARMACEUTICAL TECHNOLOGY (BSJPHARMA) …, priority 2021, published 2025).

Test system: C57BL/6 male mice
Assay: In vivo delivery study of lipid nucleic acid mixture (oral gavage, RT-qPCR of PGY-sRNA-26 in tissues)
Set-up: species or system mouse
Conditions: for overall delivery efficacy: delivering nucleic acids into each tissue and blood tested: 100 μg lipid:10 nmol PGY-sRNA-26, all tissues and blood tested; for oral delivery of single-stranded sRNA nucleic acids into mouse blood / oral delivery of single-stranded sRNA nucleic acids into mouse brain tissue / oral delivery of single-stranded sRNA nucleic acids into mouse femur / oral delivery of single-stranded sRNA nucleic acids into mouse heart tissue / oral delivery of single-stranded sRNA nucleic acids into mouse intestinal tissue / oral delivery of single-stranded sRNA nucleic acids into mouse kidney tissue / oral delivery of single-stranded sRNA nucleic acids into mouse liver tissue / oral delivery of single-stranded sRNA nucleic acids into mouse lung tissue / oral delivery of single-stranded sRNA nucleic acids into mouse spleen tissue / oral delivery of single-stranded sRNA nucleic acids into mouse stomach tissue / oral delivery of single-stranded sRNA nucleic acids into mouse pancreatic tissue: 100 μg lipid:10 nmol PGY-sRNA-26, sampled after 12 hours; for oral delivery of single-stranded sRNA nucleic acids into mouse heart tissue: vs free uptake group; for oral delivery of single-stranded sRNA nucleic acids into mouse intestinal tissue: intestine; for oral delivery of single-stranded sRNA nucleic acids into mouse pancreatic tissue: pancreas
In short: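 Lipid (100 μg) and 10 nmol 3'-methylated single-stranded PGY-sRNA-26 were heated at 90 °C for 15 min, then given by oral gavage to mice fasted 12 h. Controls were saline and free sRNA. Blood and tissues were taken at 12 h, and levels were measured by stem-loop RT-qPCR relative to U6.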

SMILES	overall delivery efficacy: delivering nucleic acids into each tissue and blood tested	oral delivery of single-stranded sRNA nucleic acids into mouse blood	oral delivery of single-stranded sRNA nucleic acids into mouse brain tissue	oral delivery of single-stranded sRNA nucleic acids into mouse femur	oral delivery of single-stranded sRNA nucleic acids into mouse heart tissue	oral delivery of single-stranded sRNA nucleic acids into mouse intestinal tissue	oral delivery of single-stranded sRNA nucleic acids into mouse kidney tissue	oral delivery of single-stranded sRNA nucleic acids into mouse liver tissue	oral delivery of single-stranded sRNA nucleic acids into mouse lung tissue	oral delivery of single-stranded sRNA nucleic acids into mouse spleen tissue	oral delivery of single-stranded sRNA nucleic acids into mouse stomach tissue	oral delivery of single-stranded sRNA nucleic acids into mouse pancreatic tissue
O=C(O)CCC(=O)O [Lipid 628, butanedioic acid]	best delivery efficacy	can effectively orally deliver	can effectively orally deliver	can effectively orally deliver	can effectively orally deliver	can effectively orally deliver	can effectively orally deliver	can effectively orally deliver	can effectively orally deliver	can effectively orally deliver	can effectively orally deliver	–
CCCCCCCCCCCCCCCC(=O)NCCO [Lipid 578, N-(2-hydroxyethyl)hexadecanamide]	–	can effectively orally deliver	can effectively orally deliver	can effectively orally deliver	can effectively orally deliver	–	can effectively orally deliver	can effectively orally deliver	can effectively orally deliver	can effectively orally deliver	can effectively orally deliver	–
CCCCCC/C=C\CCCCCCCC(=O)OCCCCCCCCCCCCCCCCCCC [Lipid 822, nonadecyl (Z)-hexadec-9-enoate]	best delivery efficacy	can effectively orally deliver	can effectively orally deliver	can effectively orally deliver	can effectively orally deliver	can effectively orally deliver	can effectively orally deliver	can effectively orally deliver	can effectively orally deliver	can effectively orally deliver	can effectively orally deliver	can effectively orally deliver
CC/C=C\C/C=C\C/C=C\CCCCCCCC(=O)OCCCCCCCCCCCCCC [Lipid 824, tetradecyl (9Z,12Z,15Z)-octadeca-9,12,15-trienoate]	–	can effectively orally deliver	can effectively orally deliver	can effectively orally deliver	can effectively orally deliver	can effectively orally deliver	can effectively orally deliver	can effectively orally deliver	can effectively orally deliver	can effectively orally deliver	can effectively orally deliver	can effectively orally deliver
NCCCCCC(=O)NCCCCCC(=O)O [Lipid 522, 6-(6-aminohexanoylamino)hexanoic acid]	–	can effectively orally deliver	–	–	can effectively orally deliver	can effectively orally deliver	–	–	can effectively orally deliver	can effectively orally deliver	can effectively orally deliver	–
